In article PMC7477582, “Context dependent effects of ascorbic acid treatment in TET2 mutant myeloid neoplasia” (Communications Biology, 2020) one finds Kd data, which are given here for one molecule.

For this assay, the target named is T1, TET2 catalytic domain (TET2CD) (Homo sapiens, UniProt Q6N021, DEL1481-1843).
T1 construct: GST-TET2CD (1099–1936 Del-insert), expressed in E. coli; also GST tag free TET2CD
Kind of assay: SPR (Biacore […]), GST-TET2CD captured by anti-GST on CM5 chip; supported by Kd […] on 5mC-DNA-captured TET2CD and 5hmC ELISA EC50 […]. The assay is classed as binding.

`O=C1O[C@H]([C@@H](O)CO)C(O)=C1O` [AA, Ascorbic acid]: the Kd (in general, the free concentration of one partner at which half of the binding sites on the other are occupied at equilibrium, for simple one-to-one binding) worked out at 9.1 ± 2.3 µM.
